Data published in patent US20050276834A1, “Mole bait and systems and methods for making and using an improved mole bait” (priority 2004, published 2005).

Test system: moles
Assay: Mole bait article fed to moles, killing of moles
Type: in vivo
Details: bromethalin absorbed from a single mole bait article; oral consumption by mole
Description: In developing the mole bait article containing gelatin, sorbitol and glycerin according to the above-outlined exemplary embodiment, the applicants screened a large number of elastomers and plasticizers. This screening included determining an appropriate ratio of components by stretching the resultant mole bait article, where the length of the mole bait article was measured before, during and after stretching. This screening also included stretching the mole bait article until the mole bait article broke, thus allowing the tensile strength of the mole bait article to be determined. This screening included providing the mole bait article having the identified formula to moles and observing whether the moles would consume the resultant mole bait article. Finally, this screening included determining whether the mole bait article, when digested by the moles, is sufficiently digestible that a single mole bait article releases an effective amount of the active ingredient into the moles' systems.
In contrast, in various exemplary embodiments of the mole bait article according to this invention, the mole bait article is sufficiently digestible that a single mole bait article according to this invention, upon being consumed and digested, is able to release an effective dose of the active ingredient to the mole. […]

For `CN(c1c(Br)cc(Br)cc1Br)c1c([N+](=O)[O-])cc([N+](=O)[O-])cc1C(F)(F)F` [Bromethalin], the “dose received from a single mole bait article during its time in the mole's digestive system” value was “lethal dose from a single one of the mole bait articles”.
